According to patent US8088916B2, “Hyaluronic acid-methotrexate conjugate” (priority 2004, dated 2012):

Assays:
[1] = Measurement of viscoelasticity; assay type: physicochemical; conditions: sterile solutions, 37° C., cone 4 cm, CSL500 stress-controlled rheometer; FIG. 1
Protocol: The viscoelasticities of the sterile solutions of hyaluronic acids (molecular weights: 1,900,000 and 800,000) and the conjugates of Examples 2-1, 2-8, 2-18, 2-27, and 2-29 were measured at 37° C. using a cone 4 cm in diameter by a CSL500 stress-controlled rheometer (from Carri-Med Ltd.).

[2] = tested on: human synovial cells (HFLS); experiment: Anti-proliferative effect on synovial cells stimulated by TNF-α ([3H]-deoxyuridine uptake); assay type: cell-based; conditions: TNF-α 10 ng/mL, 5 days culture, concentration calculated as MTX from conjugation rate
Source text: An effect of the HA-MTX conjugates of the invention on cell proliferation induced by TNF-α stimulation was examined using human synovial cells (HFLS). The main lesion in rheumatoid arthritis (RA) occurs in the synovial tissue, and, as one of the features, it is known that synovial cells abnormally proliferate to form a granulation tissue (pannus) and thereby destroy the cartilage and bone of the joint. Secondary synovitis is also observed in osteoarthritis (OA). […] Thus, a compound inhibiting the proliferation of synovial cells stimulated by the inflammatory cytokine TNF-α suppresses the progression of the pathologic conditions of RA and OA and becomes a therapeutic drug therefor. The sterile aqueous solutions of the HA-MTX conjugates in Example 2 (Table 2) were used as test substances. HFLS (CA40405, Lot Nos. 1413 and 1493) was purchased from Cell Applications Ins. for use. HFLS was seeded at 5,000 cells/well on a 96-well plate (Falcon) and cultured for 3 hours in Iscove's modified Dulbecco's medium (IMDM) containing 5% FBS and 1× Antibiotic-Antimycotic (GIBOC). After cellular attachment, TNF-α (final concentration: 10 ng/mL) and each HA-MTX conjugate at each concentration was added, followed by cultivation for 5 days. Two days before the end of culture, was added 37 kBq/well of [^3H]-deoxyuridine in the cells (MORAVEK), followed by determining the uptake quantity (radioactivity) of [^3H]-deoxyuridine using a scintillation counter. Cells were recovered by unsticking them with 0.05% trypsin-0.2% EDTA. Radioactivity determined in each of the experiments with each test substance was calculated as a relative value (% of control), using, as control, radioactivity in the group of cells cultured without adding any test substance. […] GraphPad Prism 3.02).

[3] = tested on: mBSA-induced monoarthritis model; experiment: Suppressive effect on knee joint swelling in mBSA-induced monoarthritis model; assay type: in vivo, rat; conditions: AUC of knee joint swelling to two weeks after induction; control = HA-treated group; 50 μL into right knee joint 7 and 1 day before and 7 days after induction
Protocol: An in vivo synovitis-suppressing effect of each HA-MTX conjugate of the invention was assessed on the basis of a suppressive effect on knee joint swelling in a methylated bovine serum albumin (mBSA)-induced monoarthritis model of rat. Since the mBSA-induced arthritis model employed in this experimental example is widely used as an antigen-induced arthritis model, and known to develop synovitis (Sven E. Andersson, et al., The Journal of Rheumatology (1998) 25: 9, 1772-7), the in vivo knee joint swelling-suppressing effect observed in this model conceivably represents a synovitis-suppressing effect. The compounds of the invention suppressing synovitis in vivo are useful as therapeutic drugs for joint diseases accompanied by synovitis (RA, OA, and the like).
The animal used was the LEW/Crj rat (6-week old male, from Charles River Laboratories Japan, Inc.). Into the flank of the rat was subcutaneously injected 0.5 mL of an emulsion prepared from a 2 mg/mL mBSA (Calbiochem) aqueous solution and an equal amount of Freund's complete adjuvant (Difco) 21 and 14 days before inducing arthritis. The arthritis was induced by administering 50 μL of a 2 mg/mL mBSA aqueous solution into the right knee joint. The left knee joint was untreated, and served as control in each individual. Each test substance (sterile aqueous solution) and the control drug hyaluronic acid were each administered into the right knee joint in an amount of 50 μL 7 and 1 day before and 7 days after inducing arthritis.
The determination of knee joint swelling involved measuring the widths of both knee joints with calipers to define the left/right difference (right knee diameter-left knee diameter) as a knee joint swelling. The width of each knee joint was measured at a frequency of twice a week from immediately before inducing arthritis to two weeks later to calculate AUC (an abbreviation for Area Under the Curve; here, it means an area under a curve with time for the joint swelling) from the transition thereof with time. At each measurement, the mean and standard deviation of AUC were calculated to perform an unpaired t-test between each test substance-treated group and the HA-treated group, and significant difference was judged to be present if the probability level is less than 5%. Statistical analysis used SAS version 6.12 (SAS Institute Japan). In addition, the AUC of each test substance was calculated, using that in the HA-treated group as a control, as a relative value (% of control) therefor.
To verify the usefulness of the HA-MTX conjugate of the invention, the suppressive effect on joint swelling was compared, in accordance with the method of Example 3, among: 1) a group treated with the HA-MTX conjugate (sterile aqueous solution) prepared in Example 2-2; 2) a group treated with a solution containing MTX of an amount equal to that of MTX contained in the HA-MTX conjugate; and 3) a group of treated with a mixture (HA+MTX) of MTX and hyaluronic acid (HA) of amounts equal to those contained in the conjugate. The transition of knee joint swelling with time in this test is shown in FIG. 2, and the AUC thereof in FIG. 3.

[4] = tested on: collagenase-induced arthritis (OA) model; experiment: Suppressive effect on knee joint swelling in collagenase-induced arthritis (OA) model; assay type: in vivo, rat; conditions: AUC of knee joint swelling to 20 days after induction; 50 μL into right knee joint once a week from 7 and 1 day before induction; compared with HA-treated group
Protocol: An in vivo synovitis-suppressing effect of the HA-MTX conjugate was evaluated in collagenase-induced OA model rats. The collagenase-induced OA model is a model in which inflammation has been induced within the knee joint by injecting collagenase into the knee joint to directly digest collagen in cartilage tissue. […] Therefore, the compound of the invention suppressing inflammation in the model and inhibiting cartilage degeneration therein will be useful as a therapeutic drug for OA.
The animal used was the SD/Crj rat (6-week old male, from Charles River Laboratories Japan, Inc.). Into the articular cavity of the right knee was administered 50 μL of 1.5% collagenase (Sigma) solution to induce arthritis. The left knee joint was untreated to use as a control in each individual. Each test substance was administered into the right knee joint in an amount of 50 μL once a week from 7 and 1 day before inducing arthritis.
The determination of knee joint swelling involved measuring the widths of both knee joints with calipers to determine the left/right difference (right knee diameter-left knee diameter), which was defined as a knee joint swelling. The width of each knee joint was measured on the order of twice a week from immediately before inducing arthritis to 20 days later to calculate AUC from a graph showing the transition thereof with time. At each measurement, the mean and standard error of the mean of AUC were calculated to perform an unpaired t-test between each test substance-treated group and the HA-treated group, and significant difference was judged to be present if the probability level is less than 5%.

[5] = tested on: arthritis model in which pathosis occurs in the knee joint; experiment: Intra-articular administration to an arthritis model in which pathosis occurs in the knee joint; assay type: in vivo; conditions: intra-articularly administered; summary statement

Substance	viscoelasticity [1]	IC50 [2] [µM]	AUC (% of control) (mean ± SEM) [3]	AUC (% of control) (mean ± SEM) [4]	alleviating effect on synovitis [5]
MTX-α-Ile-NHC10H20O3NH-HA [Example 2-27]	viscoelasticities intermediate between those of the hyaluronic acids having molecular weights of 800,000 and 1,900,000	3.1	75.1 ± 6.8 % of control	82.6 ± 5.2 % of control	–
MTX-α-PhePhe-NHC10H2OO3NH-HA [Example 2-8]	viscoelasticities intermediate between those of the hyaluronic acids having molecular weights of 800,000 and 1,900,000	0.84	54.9 ± 7.2 % of control	54.8 ± 5.9 % of control	–
hyaluronic acid [HA]	–	–	–	–	not seen with HA
MTX-α-PheGly-NHC10H20O3NH-HA [Example 2-18]	viscoelasticities intermediate between those of the hyaluronic acids having molecular weights of 800,000 and 1,900,000	9.2	61.5 ± 4.7 % of control	65.9 ± 3.5 % of control	–
MTX-α-PhePhe-NHC2H4NH-HA [Example 2-1]	viscoelasticities intermediate between those of the hyaluronic acids having molecular weights of 800,000 and 1,900,000	0.36	48.5 ± 5.3 % of control	45.7 ± 3.9 % of control	–
